Test results taken from the NIST ThermoML archive (doi:10.1021/je050020m).

Test: xn = mol fraction of the nth substance listed
Settings: Liquid, Vibrating tube method

CCCCCCCCCC [decane] + O=C=O
Settings	mass density [kg/m3]
362.65 K, 10044 kPa, x2 = 0.2369	691.88
362.65 K, 11011 kPa, x2 = 0.2369	693.13
362.65 K, 12005 kPa, x2 = 0.2369	694.38
362.65 K, 13039 kPa, x2 = 0.2369	695.64
362.65 K, 14013 kPa, x2 = 0.2369	696.82
362.65 K, 15072 kPa, x2 = 0.2369	698.07
362.65 K, 15510 kPa, x2 = 0.9663	452.61
362.65 K, 16012 kPa, x2 = 0.2369	699.18
362.65 K, 16012 kPa, x2 = 0.9663	471.04
362.65 K, 17007 kPa, x2 = 0.9663	504.42
362.65 K, 17009 kPa, x2 = 0.2369	700.33
362.65 K, 18008 kPa, x2 = 0.2369	701.44
362.65 K, 18010 kPa, x2 = 0.9663	534.34
362.65 K, 19013 kPa, x2 = 0.9663	561.23
362.65 K, 19020 kPa, x2 = 0.2369	702.57
362.65 K, 20006 kPa, x2 = 0.2369	703.64
362.65 K, 20015 kPa, x2 = 0.9663	585.01
362.65 K, 21029 kPa, x2 = 0.9663	606.13
362.65 K, 21068 kPa, x2 = 0.2369	704.82
362.65 K, 22007 kPa, x2 = 0.2369	705.81
362.65 K, 22007 kPa, x2 = 0.9663	624.31
362.65 K, 23022 kPa, x2 = 0.9663	641.03
362.65 K, 23055 kPa, x2 = 0.2369	706.93
362.65 K, 24015 kPa, x2 = 0.9663	655.59
362.65 K, 24030 kPa, x2 = 0.2369	707.95
362.65 K, 25028 kPa, x2 = 0.9663	669.28
362.65 K, 25056 kPa, x2 = 0.2369	709.02
362.66 K, 2031 kPa, x2 = 0.0551	678.97
362.66 K, 3029 kPa, x2 = 0.0551	680.17
362.66 K, 4134 kPa, x2 = 0.0551	681.5
362.66 K, 5034 kPa, x2 = 0.0551	682.58
362.66 K, 6050 kPa, x2 = 0.0551	683.77
362.66 K, 7045 kPa, x2 = 0.0551	684.91
362.66 K, 8030 kPa, x2 = 0.0551	686.02
362.66 K, 9020 kPa, x2 = 0.0551	687.12
362.66 K, 9024 kPa, x2 = 0.4536	693.68
362.66 K, 10012 kPa, x2 = 0.4536	695.47
362.66 K, 10044 kPa, x2 = 0.0551	688.25
362.66 K, 11025 kPa, x2 = 0.0551	689.34
362.66 K, 11031 kPa, x2 = 0.4536	697.25
362.66 K, 11987 kPa, x2 = 0.0551	690.35
362.66 K, 12002 kPa, x2 = 0.4536	698.93
362.66 K, 13025 kPa, x2 = 0.0551	691.46
362.66 K, 13028 kPa, x2 = 0.4536	700.66
362.66 K, 14008 kPa, x2 = 0.4536	702.25
362.66 K, 14075 kPa, x2 = 0.0551	692.5
362.66 K, 15024 kPa, x2 = 0.4536	703.87
362.66 K, 15026 kPa, x2 = 0.0551	693.52
362.66 K, 16000 kPa, x2 = 0.4536	705.42
362.66 K, 16020 kPa, x2 = 0.0551	694.47
362.66 K, 17003 kPa, x2 = 0.0551	695.45
362.66 K, 17017 kPa, x2 = 0.4536	706.96
362.66 K, 18002 kPa, x2 = 0.4536	708.44
362.66 K, 18032 kPa, x2 = 0.0551	696.46
362.66 K, 19030 kPa, x2 = 0.0551	697.38
362.66 K, 19030 kPa, x2 = 0.4536	709.94
362.66 K, 19998 kPa, x2 = 0.0551	698.32
362.66 K, 20001 kPa, x2 = 0.4536	711.37
362.66 K, 21029 kPa, x2 = 0.4536	712.8
362.66 K, 21052 kPa, x2 = 0.0551	699.32
362.66 K, 22014 kPa, x2 = 0.4536	714.18
362.66 K, 22028 kPa, x2 = 0.0551	700.22
362.66 K, 22996 kPa, x2 = 0.0551	701.1
362.66 K, 23024 kPa, x2 = 0.4536	715.57
362.66 K, 24006 kPa, x2 = 0.4536	716.91
362.66 K, 24036 kPa, x2 = 0.0551	702.1
362.66 K, 25008 kPa, x2 = 0.0551	702.93
362.66 K, 25025 kPa, x2 = 0.4536	718.29
